Assay results published in patent US20260345596A1, “TREATMENT OF LOCALLY ADVANCED OR METASTATIC UROTHELIAL CARCINOMA WITH ERDAFINITIB” (priority 2023, published 2026).
Where “and” joins values, the source holds several entries; their conditions need not be identical. Equal entries are not always repeated. Marks after values point to notes of the source that are not given here.

Test: Study BLC3001 (NCT03390504, THOR) Cohort 1: safety, adverse events, laboratory abnormalities and exposure
[1] = adverse events leading to death
[2] = any grade, adverse events of interest
[3] = any grade, serious adverse events, any cause
[4] = grade 3-4 adverse events of interest
[5] = leading to treatment discontinuation

With `COc1cc(OC)cc(N(CCNC(C)C)c2ccc3ncc(-c4cnn(C)c4)nc3c2)c1` [Erdafitinib, N-(3,5-dimethoxyphenyl)-N′-(1-methylethyl)-N-[3-(1-methyl-1H-pyrazol-4-yl)quinoxalin-6-yl]ethane-1,2-diamine] the Aspartate aminotransferase increased (Grade ≥3, treatment-related) was 2 (1.5) no. (%), the Asthenia (Grade ≥3, treatment-related) was 0 no. (%) and the Constipation (Grade ≥3, treatment-related) was 0 no. (%). For the same molecule, the Decreased appetite (Grade ≥3, treatment-related) was 3 (2.2) no. (%), the Diarrhea (Grade ≥3, treatment-related) was 4 (3.0) no. (%) and the Dry eye (Grade ≥3, treatment-related) was 0 no. (%). For the same molecule, the Dry mouth (Grade ≥3, treatment-related) was 0 no. (%), the Dry skin (Grade ≥3, treatment-related) was 2 (1.5) no. (%) and the Dysgeusia (Grade ≥3, treatment-related) was 1 (0.7) no. (%). The Fatigue (Grade ≥3, treatment-related) was 0 no. (%), the Hyperphosphatemia (Grade ≥3, treatment-related) was 7 (5.2) no. (%) and the Nausea (Grade ≥3, treatment-related) was 1 (0.7) no. (%). For the same molecule, the Neutropenia (Grade ≥3, treatment-related) was 0 no. (%), the Onycholysis (Grade ≥3, treatment-related) was 8 (5.9) no. (%) and the Onychomadesis (Grade ≥3, treatment-related) was 2 (1.5) no. (%). The Palmar-plantar erythrodysesthesia syndrome (Grade ≥3, treatment-related) was 13 (9.6) no. (%), the Stomatitis (Grade ≥3, treatment-related) was 11 (8.1) no. (%) and the Atypical pneumonia [1] was 0 no. (%). The Cardiorespiratory arrest [1] was 1 (0.7) no. (%), the “Febrile bone marrow aplasia” value [1] was 0 no. (%) and the Febrile neutropenia [1] was 0 no. (%). The Pneumonia necrotizing [1] was 1 (0.7) no. (%), the Renal failure [1] was 1 (0.7) no. (%) and the Septic shock [1] was 0 no. (%). The Sudden death [1] was 2 (1.5) no. (%), the “Adverse events leading to treatment discontinuation” value (any cause) was 19 (14.1%) no. (%) and 19 (14.1) no. (%) and the Central serous retinopathy (any grade) was 23 (17.0%) n (%) and 23 (17.0) n (%). For the same molecule, the “Eye disorders (excluding central serous retinopathy)” value (any grade) was 57 (42.2) n (%), the Nail disorders (any grade) was 90 (66.7) n (%) and the Skin disorders (any grade) was 74 (54.8) n (%). The Central serous retinopathy [2] was 23 (17.0) no. (%), the Chorioretinopathy [2] was 8 (5.9) no. (%) and the “Detachment of macular retinal pigment epithelium” value [2] was 1 (0.7) no. (%). For the same molecule, the “Detachment of retinal pigment epithelium” value [2] was 7 (5.2) no. (%), the “Eye disorders (excluding central serous retinopathy)” value [2] was 57 (42.2) no. (%) and the Macular detachment [2] was 2 (1.5) no. (%). The Nail disorders [2] was 90 (66.7) no. (%), the Retinopathy [2] was 2 (1.5) no. (%) and the Skin disorders [2] was 74 (54.8) no. (%). For the same molecule, the Subretinal fluid [2] was 5 (3.7) no. (%), the Hematuria [3] was 5 (3.7) no. (%) and the Hyponatremia [3] was 3 (2.2) no. (%). The Urinary tract infection [3] was 6 (4.4) no. (%), the Neutropenia (any grade, treatment-emergent) was 0 no and the Alanine aminotransferase increased (any grade, treatment-related) was 29 (21.5) no. (%). The Alopecia (any grade, treatment-related) was 32 (23.7) no. (%), the Anemia (any grade, treatment-related) was 16 (11.9) no. (%) and the Aspartate aminotransferase increased (any grade, treatment-related) was 25 (18.5) no. (%). The Asthenia (any grade, treatment-related) was 11 (8.1) no. (%), the Constipation (any grade, treatment-related) was 12 (8.9) no. (%) and the Decreased appetite (any grade, treatment-related) was 28 (20.7) no. (%). The Diarrhea (any grade, treatment-related) was 74 (54.8) no. (%), the Dry eye (any grade, treatment-related) was 22 (16.3) no. (%) and the Dry mouth (any grade, treatment-related) was 52 (38.5) no. (%). For the same molecule, the Dry skin (any grade, treatment-related) was 30 (22.2) no. (%), the Dysgeusia (any grade, treatment-related) was 34 (25.2) no. (%) and the Fatigue (any grade, treatment-related) was 18 (13.3) no. (%). The Hyperphosphatemia (any grade, treatment-related) was 106 (78.5) no. (%), the Nausea (any grade, treatment-related) was 14 (10.4) no. (%) and the Neutropenia (any grade, treatment-related) was 0 no. (%). The Onycholysis (any grade, treatment-related) was 31 (23.0) no. (%), the Onychomadesis (any grade, treatment-related) was 27 (20.0) no. (%) and the Palmar-plantar erythrodysesthesia syndrome (any grade, treatment-related) was 41 (30.4) no. (%). For the same molecule, the Stomatitis (any grade, treatment-related) was 62 (45.9) no. (%), the Treatment-related deaths (count) was 1 and the Central serous retinopathy (grade 3-4) was 3 (2.2) n (%). The “Eye disorders (excluding central serous retinopathy)” value (grade 3-4) was 3 (2.2) n (%), the Nail disorders (grade 3-4) was 15 (11.1) n (%) and the Skin disorders (grade 3-4) was 16 (11.9) n (%). It also gave a Central serous retinopathy [4] of 2.2%, a Nail disorders [4] of 11.1% and a Skin disorders [4] of 11.9%. It also gave an Onycholysis (grade ≥3, treatment-related) of 5.9%, a Palmar-plantar erythrodysesthesia syndrome (grade ≥3, treatment-related) of 9.6% and a Stomatitis (grade ≥3, treatment-related) of 8.1%. The “Treatment-emergent adverse events that led to death” value (in vivo) was 4.4%, the “Treatment-related serious adverse events” value (in vivo) was 13.3% and the “Treatment-related adverse events that led to death” value (investigator-assessed) was 0.7%. For the same molecule, the Anemia [5] was 0 no. (%), the “Any patient with one or more adverse events leading to treatment discontinuation” value [5] was 19 (14.1) no. (%) and the Atypical pneumonia [5] was 0 no. (%). For the same molecule, the COVID-19 [5] was 1 (0.7) no. (%), the Cardiorespiratory arrest [5] was 1 (0.7) no. (%) and the “Detachment of retinal pigment epithelium” value [5] was 1 (0.7) no. (%). The Diarrhea [5] was 0 no. (%), the Dry skin [5] was 1 (0.7) no. (%) and the Dysphagia [5] was 1 (0.7) no. (%). The Dyspnea [5] was 0 no. (%), the Edema peripheral [5] was 0 no. (%) and the Extremity necrosis [5] was 1 (0.7) no. (%). For the same molecule, the “Febrile bone marrow aplasia” value [5] was 0 no. (%), the Febrile neutropenia [5] was 0 no. (%) and the Fractured sacrum [5] was 0 no. (%). The Hematuria [5] was 1 (0.7) no. (%), the Hyponatremia [5] was 0 no. (%) and the Hypotension [5] was 1 (0.7) no. (%). For the same molecule, the Ileus [5] was 0 no. (%), the Keratitis [5] was 1 (0.7) no. (%) and the Nail dystrophy [5] was 1 (0.7) no. (%). The Onycholysis [5] was 2 (1.5) no. (%), the Paronychia [5] was 1 (0.7) no. (%) and the Peripheral sensory neuropathy [5] was 0 no. (%). For the same molecule, the Pneumonia necrotizing [5] was 1 (0.7) no. (%), the Pneumonitis [5] was 0 no. (%) and the Renal failure [5] was 1 (0.7) no. (%). For the same molecule, the Sciatica [5] was 0 no. (%), the Septic shock [5] was 0 no. (%) and the Sudden death [5] was 2 (1.5) no. (%). For the same molecule, the Syncope [5] was 0 no. (%), the Urinary retention [5] was 1 (0.7) no. (%) and the Vision blurred [5] was 1 (0.7) no. (%). For the same molecule, the Vomiting [5] was 0 no. (%), the “Adverse events leading to dose interruption” value (safety population) was 97 (71.9) no. (%) and the “Adverse events leading to dose reduction” value (safety population) was 93 (68.9) no. (%). The “Adverse events of any cause” value (safety population) was 98.5%, the “Any adverse events (treatment-emergent)” value (safety population) was 133 (98.5%) no. (%) and 133 (98.5) no. (%) and the COVID-19-related adverse events (safety population) was 12 (8.9) no. (%). The “COVID-19-related serious adverse events” value (safety population) was 1 (0.7) no. (%), the “Grade 3-4 serious adverse events” value (safety population) was 52 (38.5) no. (%) and the “Grade 3-4 treatment-related adverse events” value (safety population) was 45.9%. The “Related adverse events (≥1 treatment-related AE, any grade)” value (safety population) was 131 (97.0) no. (%), the “Related adverse events leading to death” value (safety population) was 1 (0.7) no. (%) and the “Related adverse events leading to dose interruption” value (safety population) was 89 (65.9) no. (%). The “Related adverse events leading to dose reduction” value (safety population) was 89 (65.9) no. (%), the “Related adverse events leading to treatment discontinuation” value (safety population) was 11 (8.1%)^b no. (%) and 11 (8.1) no. (%) and the “Related grade 3-4 adverse events” value (safety population) was 62 (45.9) no. (%). For the same molecule, the “Related grade 3-4 serious adverse events” value (safety population) was 16 (11.9) no. (%), the “Related serious adverse events” value (safety population) was 18 (13.3) no. (%) and the “Adverse events leading to death” value (treatment-emergent) was 6 (4.4%) no. (%) and 6 (4.4) no. (%). For the same molecule, the “Grade 3-4 adverse events” value (treatment-emergent) was 85 (63.0%) no. (%) and 85 (63.0) no. (%), the Serious adverse events (treatment-emergent) was 56 (41.5%) no. (%) and 56 (41.5) no. (%) and the “Clinically important TEAEs” value (treatment-emergent, any grade) was 125 (92.6%) n (%). The “Eye disorders leading to discontinuation” value (treatment-related AEs) was “^bMost frequent treatment-related AEs leading to discontinuation of erdafitinib included eye disorders (3 patients) and skin and subcutaneous disorders (3 patients)”, the Diarrhea (treatment-related, any grade) was 74 (54.8) n (%) and the Dry mouth (treatment-related, any grade) was 52 (38.5) n (%). For the same molecule, the Hyperphosphatemia (treatment-related, any grade) was 106 (78.5) n (%), the Onycholysis (treatment-related, any grade) was 31 (23.0) n (%) and the PPE syndrome (treatment-related, any grade) was 41 (30.4) n (%). For the same molecule, the Stomatitis (treatment-related, any grade) was 62 (45.9) n (%), the Diarrhea (treatment-related, grade 3-4) was 4 (3.0) n (%) and the Dry mouth (treatment-related, grade 3-4) was 0 n (%). For the same molecule, the Hyperphosphatemia (treatment-related, grade 3-4) was 7 (5.2) n (%), the Onycholysis (treatment-related, grade 3-4) was 8 (5.9) n (%) and the PPE syndrome (treatment-related, grade 3-4) was 13 (9.6) n (%). For the same molecule, the Stomatitis (treatment-related, grade 3-4) was 11 (8.1) n (%) and the “Lowering of discontinuation due to treatment-related adverse events” value (versus chemotherapy) was “about 5.3%”.
